In patent US20090018166A1, “New Pyridine Analogues X 161” (ASTRAZENECA AB, priority 2007, published 2009) one finds IC50 data, which are given here for 25 molecules.

T1 sequence (Q9H244 whole entry): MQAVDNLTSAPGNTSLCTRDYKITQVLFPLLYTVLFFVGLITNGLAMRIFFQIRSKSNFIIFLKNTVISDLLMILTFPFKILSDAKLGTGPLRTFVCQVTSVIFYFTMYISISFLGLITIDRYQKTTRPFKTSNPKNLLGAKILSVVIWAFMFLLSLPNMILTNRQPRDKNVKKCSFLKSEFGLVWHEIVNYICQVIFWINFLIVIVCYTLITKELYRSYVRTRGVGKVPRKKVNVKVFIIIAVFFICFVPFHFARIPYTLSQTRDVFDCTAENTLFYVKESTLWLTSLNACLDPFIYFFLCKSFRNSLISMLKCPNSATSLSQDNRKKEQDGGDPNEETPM

One test has as its target T1, P2Y12 receptor (Homo sapiens, UniProt Q9H244).
T1 construct: expressed in transfected cells; host or cells: CHO cells (membranes)
In words: Functional inhibition of 2-Me-S-ADP induced P2Y12 signalling (35S-GTPγS binding, membranes from P2Y12 transfected CHO-cells). The class given is biochemical. The settings on record: 35S-GTPγS, EC80 of 2-methyl-thio-adenosine diphosphate, P2Y12 CHO membranes; value given in each example; read-out: GTPγS(IC50 μM). On the procedure:
Functional inhibition of- the P2Y12 receptor can be measured by in vitro assays using cell membranes from P2Y12 transfected CHO-cells, the methodology is indicated below.
Functional inhibition of 2-Me-S-ADP induced P2Y12 signalling: 5 μg of membranes were diluted in 200 μl of 200 mM NaCl, 1 mM MgCl2, 50 mM HEPES (pH 7.4), 0.01% BSA, 30 μg/ml saponin and 10 μM GDP. To this was added an EC80 concentration of agonist (2-methyl-thio-adenosine diphosphate), the required concentration of test compound and 0.1 μCi ^35S-GTPγS. The reaction was allowed to proceed at 30° C. for 45 min. Samples were then transferred on to GF/B filters using a cell harvester and washed with wash buffer (50 mM Tris (pH 7.4), 5 mM MgCl2, 50 mM NaCl). Filters were then covered with scintilant and counted for the amount of ^35S-GTPγS retained by the filter. Maximum activity was that determined in the presence of the agonist and minimum activity in the absence of the agonist following subtraction of the value determined for non-specific activity. The effect of compounds at various concentrations was plotted according to the equation
y=A+((B−A)/(1+((C/x)̂D)))
and IC50 estimated where A is the bottom plateau of the curve i.e. the final minimum y value B is the top of the plateau of the curve i.e. the final maximum y value C is the x value at the middle of the curve. This represents the log EC50 value when A+B=100 D is the slope factor. x is the original known x values. Y is the original known y values.
Regarding “1-{3-chloro-6-[(2-oxopyrrolidin-1-yl)methyl]-5-pentanoylpyridin-2-yl}-N-[(2,4-difluorobenzyl)sulfonyl]-N-methylpiperidine-4-carboxamide [Example 71]”, the concentration for half-maximal inhibition (IC50) was 0.903 µM.

As to `CC(=O)c1cc(C#N)c(N2CCC(C(=O)NS(=O)(=O)Cc3ccccc3)CC2)nc1CN1CCCC1=O` [Example 1, 1-{5-Acetyl-3-cyano-6-[(2-oxopyrrolidin-1-yl)methyl]pyridin-2-yl}-N-(benzylsulfonyl)piperidine-4-carboxamide], the IC50 came to 0.283 µM.

In the case of `CCCC(=O)c1cc(C#N)c(N2CCC(C(=O)NS(=O)(=O)Cc3ccccc3)CC2)nc1CN1CCCC1=O` [Example 2, N-(Benzylsulfonyl)-1-{5-butyryl-3-cyano-6-[(2-oxopyrrolidin-1-yl)methyl]pyridin-2-yl}piperidine-4-carboxamide], the half-inhibitory concentration (IC50) was found to be 0.022 µM.

Regarding `CC(=O)c1cc(C#N)c(N2CCC(C(=O)NS(=O)(=O)Cc3ccccc3)CC2)nc1CN1CCCCC1=O` [Example 3, 1-{5-Acetyl-3-cyano-6-[(2-oxopiperidin-1-yl)methyl]pyridin-2-yl}-N-(benzylsulfonyl)piperidine-4-carboxamide], the half-inhibitory concentration (IC50) was 1.65 µM.

With `CCCC(=O)c1cc(C#N)c(N2CCC(C(=O)NS(=O)(=O)Cc3ccc(C)cc3)CC2)nc1CN1CCCCC1=O` [Example 4, 1-{5-Butyryl-3-cyano-6-[(2-oxopiperidin-1-yl)methyl]pyridin-2-yl}-N-[(4-methylbenzyl)sulfonyl]piperidine-4-carboxamide], the concentration for half-maximal inhibition (IC50) was 0.021 µM.

With `CCCC(=O)c1cc(C#N)c(N2CCC(C(=O)NS(=O)(=O)Cc3ccc(C)cc3)CC2)nc1CN1CCCC1=O` [Example 5, 1-{5-butyryl-3-cyano-6-[(2-oxopyrrolidin-1-yl)methyl]pyridin-2-yl}-N-[(4-methylbenzyl)sulfonyl]piperidine-4-carboxamide], the IC50 amounted to 0.009 µM.

Regarding `CCCC(=O)c1cc(C#N)c(N2CCC(C(=O)NS(=O)(=O)Cc3ccc(F)cc3F)CC2)nc1CN1CCCC1=O` [Example 6, 1-{5-butyryl-3-cyano-6-[(2-oxopyrrolidin-1-yl)methyl]pyridin-2-yl}-N-[(2,4-difluorobenzyl)sulfonyl]piperidine-4-carboxamide], the half-inhibitory concentration (IC50) is 0.0099 µM.

On to `CCCC(=O)c1cc(C#N)c(N2CCC(C(=O)NS(=O)(=O)CC3CCCC3)CC2)nc1CN1CCCC1=O` [Example 7, 1-{5-Butyryl-3-cyano-6-[(2-oxopyrrolidin-1-yl)methyl]pyridin-2-yl}-N-[(cyclopentylmethyl)sulfonyl]piperidine-4-carboxamide], for which the IC50 turned out to be 0.028 µM.

Turning to `N#Cc1cc(C(=O)C2CC2)c(CN2CCCC2=O)nc1N1CCC(C(=O)NS(=O)(=O)Cc2ccccc2)CC1` [Example 8, N-(benzylsulfonyl)-1-{3-cyano-5-(cyclopropylcarbonyl)-6-[(2-oxopyrrolidin-1-yl)methyl]pyridin-2-yl}piperidine-4-carboxamide], the IC50 worked out at 0.032 µM.

For `N#Cc1cc(C(=O)C2CC2)c(CN2CCCC2=O)nc1N1CCC(C(=O)NS(=O)(=O)CC2CCCC2)CC1` [Example 9, 1-{3-Cyano-5-(cyclopropylcarbonyl)-6-[(2-oxopyrrolidin-1-yl)methyl]pyridin-2-yl}-N-[(cyclopentylmethyl)sulfonyl]piperidine-4-carboxamide], the IC50 was 0.058 µM.

For the molecule `CCC(=O)c1cc(C#N)c(N2CCC(C(=O)NS(=O)(=O)Cc3ccccc3)CC2)nc1CN1CCCC1=O` [Example 10, N-(benzylsulfonyl)-1-{3-cyano-6-[(2-oxopyrrolidin-1-yl)methyl]-5-propionylpyridin-2-yl}piperidine-4-carboxamide], the IC50 is 0.098 µM.

On to `CCC(=O)c1cc(C#N)c(N2CCC(C(=O)NS(=O)(=O)Cc3ccc(C)cc3)CC2)nc1CN1CCCC1=O` [Example 11, 1-{3-cyano-6-[(2-oxopyrrolidin-1-yl)methyl]-5-propionylpyridin-2-yl}-N-[(4-methylbenzyl)sulfonyl]piperidine-4-carboxamide], for which the IC50 was 0.037 µM.

Consider `CCC(=O)c1cc(C#N)c(N2CCC(C(=O)NS(=O)(=O)CC3CCCC3)CC2)nc1CN1CCCC1=O` [Example 12, 1-{3-Cyano-6-[(2-oxopyrrolidin-1-yl)methyl]-5-propionylpyridin-2-yl}-N-[(cyclopentylmethyl)sulfonyl]piperidine-4-carboxamide], for which the 50% inhibitory concentration (IC50) worked out at 0.328 µM.

For `CN(c1ccccc1)S(=O)(=O)NC(=O)C1CCN(c2nc(CN3CCCCC3=O)c(C(=O)C3CC3)cc2C#N)CC1` [Example 13, 1-{3-Cyano-5-(cyclopropylcarbonyl)-6-[(2-oxopiperidin-1-yl)methyl]pyridin-2-yl}-N-{[methyl(phenyl)amino]sulfonyl}piperidine-4-carboxamide], the IC50 stood at 0.153 µM.

`N#Cc1cc(C(=O)C2CC2)c(CN2CCCCC2=O)nc1N1CCC(C(=O)NS(=O)(=O)CC2CCCC2)CC1` [Example 14, 1-{3-Cyano-5-(cyclopropylcarbonyl)-6-[(2-oxopiperidin-1-yl)methyl]pyridin-2-yl}-N-[(cyclopentylmethyl)sulfonyl]piperidine-4-carboxamide]: the half-maximal inhibitory concentration (IC50) was found to be 0.461 µM.

Take `CC(C)C(=O)c1cc(C#N)c(N2CCC(C(=O)NS(=O)(=O)Cc3ccccc3)CC2)nc1CN1CCCC1=O` [Example 15, N-(Benzylsulfonyl)-1-{3-cyano-5-isobutyryl-6-[(2-oxopyrrolidin-1-yl)methyl]pyridin-2-yl}piperidine-4-carboxamide]: the IC50 came out at 0.106 µM.

Take `CC(C)C(=O)c1cc(C#N)c(N2CCC(C(=O)NS(=O)(=O)CC3CCCC3)CC2)nc1CN1CCCC1=O` [Example 16, 1-{3-Cyano-5-isobutyryl-6-[(2-oxopyrrolidin-1-yl)methyl]pyridin-2-yl}-N-[(cyclopentylmethyl)sulfonyl]piperidine-4-carboxamide]: the IC50 is 0.396 µM.

Consider `CCCCC(=O)c1cc(C#N)c(N2CCC(C(=O)NS(=O)(=O)CC3CCCC3)CC2)nc1CN1CCCC1=O` [Example 17, 1-{3-Cyano-6-[(2-oxopyrrolidin-1-yl)methyl]-5-pentanoylpyridin-2-yl}-N-[(cyclopentylmethyl)sulfonyl]piperidine-4-carboxamide], for which the IC50 was 0.029 µM.

Regarding `CCCCC(=O)c1cc(C#N)c(N2CCC(C(=O)NS(=O)(=O)Cc3ccccc3)CC2)nc1CN1CCCC1=O` [Example 18, N-(Benzylsulfonyl)-1-{3-cyano-6-[(2-oxopyrrolidin-1-yl)methyl]-5-pentanoylpyridin-2-yl}piperidine-4-carboxamide], the half-maximal inhibitory concentration (IC50) worked out at 0.013 µM.

For the molecule `CCCCC(=O)c1cc(C#N)c(N2CCC(C(=O)NS(=O)(=O)Cc3ccc(C)cc3)CC2)nc1CN1CCCC1=O` [Example 19, 1-{3-Cyano-6-[(2-oxopyrrolidin-1-yl)methyl]-5-pentanoylpyridin-2-yl}-N-[(4-methylbenzyl)sulfonyl]piperidine-4-carboxamide], the IC50 was 0.0086 µM.

On to `CCCCC(=O)c1cc(C#N)c(N2CCC(C(=O)NS(=O)(=O)Cc3ccc(F)cc3F)CC2)nc1CN1CCCC1=O` [Example 20, 1-{3-Cyano-6-[(2-oxopyrrolidin-1-yl)methyl]-5-pentanoylpyridin-2-yl}-N-[(2,4-difluorobenzyl)sulfonyl]piperidine-4-carboxamide], for which the 50% inhibitory concentration (IC50) was determined as 0.013 µM.

For the molecule `CCCCC(=O)c1cc(C#N)c(N2CCC(C(=O)NS(=O)(=O)N(C)c3ccc(F)cc3)CC2)nc1CN1CCCC1=O` [Example 21, 1-{3-Cyano-6-[(2-oxopyrrolidin-1-yl)methyl]-5-pentanoylpyridin-2-yl}-N-{[(4-fluorophenyl)(methyl)amino]sulfonyl}piperidine-4-carboxamide], the concentration for half-maximal inhibition (IC50) was found to be 0.023 µM.

Turning to `CCCCC(=O)c1cc(C#N)c(N2CCC(C(=O)NS(=O)(=O)N(C)c3ccccc3)CC2)nc1CN1CCCC1=O` [Example 22, 1-{3-Cyano-6-[(2-oxopyrrolidin-1-yl)methyl]-5-pentanoylpyridin-2-yl}-N-{[methyl(phenyl)amino]sulfonyl}piperidine-4-carboxamide], the 50% inhibitory concentration (IC50) worked out at 0.017 µM.

On to `CN(c1ccccc1)S(=O)(=O)NC(=O)C1CCN(c2nc(CN3CCCC3=O)c(C(=O)C3CC3)cc2C#N)CC1` [Example 23, 1-{3-Cyano-5-(cyclopropylcarbonyl)-6-[(2-oxopyrrolidin-1-yl)methyl]pyridin-2-yl}-N-{[methyl(phenyl)amino]sulfonyl}piperidine-4-carboxamide], for which the half-inhibitory concentration (IC50) was 0.042 µM.

As to `N#Cc1cc(C(=O)C2CC2)c(CN2CCCC2=O)nc1N1CCC(C(=O)NS(=O)(=O)CC2CCC2)CC1` [Example 24, 1-{3-Cyano-5-(cyclopropylcarbonyl)-6-[(2-oxopyrrolidin-1-yl)methyl]pyridin-2-yl}-N-[(cyclobutylmethyl)sulfonyl]piperidine-4-carboxamide], the IC50 came out at 0.428 µM.

The same test, now with this note: functional inhibition of 2-Me-S-ADP induced P2Y12 signalling assay; EC80 of agonist; summary table in Pharmacological Data; read-out: IC50.
In the case of `CCCC(=O)c1cc(C#N)c(N2CCC(C(=O)NS(=O)(=O)Cc3ccc(C)cc3)CC2)nc1CN1CCCCC1=O` [Example 4, 1-{5-Butyryl-3-cyano-6-[(2-oxopiperidin-1-yl)methyl]pyridin-2-yl}-N-[(4-methylbenzyl)sulfonyl]piperidine-4-carboxamide], the half-maximal inhibitory concentration (IC50) amounted to 0.28 µM.

`CCC(=O)c1cc(C#N)c(N2CCC(C(=O)NS(=O)(=O)CC3CCCC3)CC2)nc1CN1CCCC1=O` [Example 12, 1-{3-Cyano-6-[(2-oxopyrrolidin-1-yl)methyl]-5-propionylpyridin-2-yl}-N-[(cyclopentylmethyl)sulfonyl]piperidine-4-carboxamide]: the IC50 is 0.13 µM.
